# Experimental data reported in EPA's ToxValDB 9.5 (doi:10.2903/j.efsa.2012.2504).
# What was measured:
# [1] = system: Rattus norvegicus; settings: for LD50: acute, mortality
# [2] = system: Anas platyrhynchos; settings: oral, mortality
# [3] = system: Colinus virginianus
Structure (SMILES),LD50 ([1]; oral) [mg/kg],"LD50 ([2]; acute, unspecified) [mg/kg]","LC50 ([2]; short-term, feed) [mg/kg-day]","LC50 ([3]; acute, oral, diet, mortality) [mg/kg-day]","LD50 ([3]; acute, oral, mortality) [mg/kg]","NOEC ([3]; reproduction developmental, M) [mg/kg-day]","NOAEL ([1]; chronic, duration: 2 years, organ weight) [mg/kg-day]","NOAEL ([1]; chronic, no effects) [mg/kg-day]","NOAEL ([1]; subchronic, duration: 90 days, oral, histopathology: nonneoplastic) [mg/kg-day]"
O=C(O)c1ccccc1C(F)(F)F [2-(Trifluoromethyl)benzoic acid],> 2000,,,,,,,,
COCCOC(=O)C(C#N)(C(=O)c1ccccc1C(F)(F)F)c1ccc(C(C)(C)C)cc1 (stereo not given) [Cyflumetofen],> 2000,> 2250,> 2380,> 1410,> 2000,≥ 84.4,16.5,34.6,16.5
